Source: patent US12605374B2, “Methods for drug screening and compositions useful for the inhibition of cell proliferation and/or cell survival” (The Brigham and Women's Hospital, Inc., priority 2019, dated 2026)

What was measured:
embryonic zebrafish = assay: Blinded re-screen of top 10 prioritized ChemBridge compounds for developmental phenotypes in embryonic zebrafish; format: in vivo
Procedure: Male and female wild-type (AB) fish were housed and embryos bred for screening using standard protocols. […] 10 mM compound stocks were diluted to 2 mM using DMSO, and 1 μL of each diluted compound solution was introduced into individual wells at 5 hours post fertilization (hpf) using a manual multichannel pipettor (10 uM final concentration). The first and last column of each plate received only DMSO, serving as negative control wells.
Embryos were screened for a series of developmental phenotypes at both 24 and 48 hpf using standard light microscopy. […] Only those wells where at least two of the three embryos were dead or delayed were annotated as a hit for 24 hour death or delay/arrest, respectively.
Resulting scores for each phenotype were used to rank the over 900,000 compounds. Enrichment for compounds with high (>0.95) similarity to known therapeutics (defined using Tanimoto Coefficient of molecular fingerprints) was calculated for each of the 6 ranked lists using gene set enrichment analysis^69. The top 10 highest-ranking compounds from each of the 6 lists were screened as described above, blinded and in duplicate.

zebrafish embryos = assay: Respiration rate analysis (Seahorse XF24 oxygen consumption); format: in vivo; conditions: embryos from 5 hpf, versus DMSO control
Procedure: Analysis of embryonic respiration was performed using a Seahorse XF24 analyzer (Agilent). Embryos at 5 hours post fertilization were arrayed in E3 media at 3 per well in a 24-well standard Seahorse plate using an isolating mesh (as in Stackley et al^72). Each plate contained four replicates of each indicated compound of interest, as well as 4 control wells receiving the equivalent DMSO as contained in the indicated compound solution, and 4 wells with no embryos present to act as a baseline for oxygen content of the media. The sample baseline was read for 5 cycles (3 minute mix, 2 minute wait, 5 minute measure), then compounds were introduced in a single 40-cycle injection phase (3 minute mix, 2 minute wait, 5 minute measure). Measurement data were exported using Seahorse software (Agilent) and averaged over 3 experimental days.

CCC1(CC)CCN(C(=O)c2cc(COc3ccc4ncccc4c3)on2)C1 [ChemBridge ID 65692859, 6-([3-[(3,3-diethylpyrrolidin-1-yl)carbonyl]isoxazol-5-yl]methoxy)quinoline]
Hit (predicted phenotype observed) (embryonic zebrafish; Prediction: Delay/Arrest): Yes | Phenotype Observed (embryonic zebrafish; embryonic zebrafish, 10 uM introduced at 5 hpf, scored at 24 and 48 hpf, blinded, in duplicate): Bud stage at 24 h, dead at 48 h | respiration rate (oxygen consumption rate) (zebrafish embryos): consistent respiration rate
